# Entries after “also recorded” stand apart in the source; their conditions may differ.
# Test system: U266 myeloma cells
# Assay: 51Cr-release cytotoxic assay with PD-L1-specific CTLs
# Format: cell-based, human
# Settings: U266 cells pretreated with IFN-γ
# Description: The cytotoxicity assay was performed as in Example 1. Briefly, HLA-A2-positive CTLs that were specific to PD-L1 were thawed, rested over-night and used as effector cells against 51 Cr-labeled HLA-A2-positive U266 myeloma cells in different effector to target (E:T)-cell ratios.
substance,measurement,value
"IFN-γ: Interferon gamma, a major inducer of PD-L1 expression, used to pretreat U266 cells",killing of U266 cells by PD-L1 specific CTLs after pretreatment,more susceptible to being killed; also recorded: tendency towards increased killing
